Source: patent US20240270771A1, “Compound containing phosphate group, pharmaceutical composition containing same, preparation method therefor and use thereof” (SHANGHAI RAISING PHARMACEUTICAL CO., LTD., priority 2021, published 2024)

Experiments:
[1] = test system: memory reproduction disorder model induce by ethanol; assay: Dark avoidance test, memory reproduction disorder model induced by ethanol; assay type: in vivo, ICR mice; settings: 45% ethanol 0.1 mL/10 g gavage, compound 200 mg/kg gavage once a day 3 weeks; for Number of errors: model group 2.4 ± 1.7; for Latency period: model group 118.4 ± 106.9
Experimental: The mice employed in the present test were purchased from Xipuer-BIKAI Laboratory Animal Co., Ltd., and they were SPF grade ICR mice, 3-4 weeks old, weighing 16-18 g.
Anhydrous ethanol: Shanghai Titan Technology Co., Ltd.; Product No.: G73537B; Purity: >99.7%.
Test article preparation: 100 mg of the compound to be tested was weighed and added to 10 mL of 0.7% CMC-Na to prepare a 10 mg/mL suspension for use.
The laboratory mice were randomly divided into groups (9 or 10 mice per group). The mice in each group were administrated at a dosage of 0.2 mL/10 g body weight by oral gavage once a day for three weeks.
The laboratory mice animals were administered by gavage for three weeks. One hour after the last administration, they were trained with the YLS-17B dark avoidance tester. The test was performed 24 h later. A 45% ethanol solution (0.1 mL/10 g) was administered by oral gavage 30 min before the test. The latency period (the time from the start of counting to the first time of entering the dark compartment) and the number of errors (number of electric shocks) of the animals were recorded.
The activity box of the dark avoidance automatic tester comprises two compartments (bright and dark), there is a hole between the two compartments, the bottom of the box is covered by a copper grid, and the animals normally go into the dark compartment. Before the formal test, the laboratory mice were trained by placing the animals in the bright compartment with their backs facing the entrance of the hole, to get familiar with the environment for 5 min, and then the copper grid in the dark compartment was electrified for stimulation at a voltage of 50 V and a current of 1.00 mA (which can be adjusted according to the actual situation). When the animals received electric shock, they entered the bright compartment, or went back and forth between the two compartments. The current was continuously applied for 5 min, which served as the training process.
Testing: the mice modeled with ethanol were put into the bright box one by one with their backs facing the entrance of the hole, and the time interval between putting each animal was 5 s. After the first animal was put into the bright compartment, the electricity was applied immediately. The electricity was applied for 6 min. At the end of applying electricity, data were printed, and the latency period (the time from the start of counting to the first time of entering the dark compartment) and the number of errors (the number of electric shock during the testing period) were recorded. Due to the different time of putting the animal in, the time difference can be subtracted according to the actual time of putting the animal.
Statistical analysis: all data were expressed as the mean value±standard deviation, and SPSS software was used for analysis.

Aβ40 = Aβ40 content in culture supernatant of HEK293APP/sw overexpressing cells (ELISA kit); assay type: cell-based; settings: compound 400 μM, 24 hours, adjusted by total protein concentration, blank control 127.81
Experimental: (§1) BCA Protein Assay Kit was purchased from Beyotime, Aβ40 and Aβ42 detection kits were purchased from Wako, and cell culture related reagents were purchased from Gibco.
(§2) HEK293APP/sw overexpressing cells were cultured in DMEM medium containing 10% FBS, 100 μg/mL G418 (Geneticin) and 1×Penicillin-Streptomycin in 48-well plates. A 4 mM compound stock solution (prepared by dissolving the compound in DMEM culture medium) was filtered through a 0.22 μm sterile filter and stored at −20° C. for subsequent use. At 70% cell density, 40 μL of the compound test solution was added to each well to reach a final concentration of 400 μM, and the plate was incubated for 24 hours.
(§3) The supernatant of the culture medium was collected. The BCA reagent was added to a part of the supernatant, after incubating at room temperature for 30 min, the absorbance value (i.e., OD value) of each well was determined by a microplate reader at 570 nm. The total protein concentration was calculated according to a protein standard curve. Meanwhile, the other part of the supernatant (100 μL) was added to a coated 96-well plate and incubated overnight at 4° C., after the solution was removed and the reagents were washed, HRP (horseradish peroxidase)-labeled antibody was added and incubated at 4° C. for 2 hours. After the reagents were removed and washed, a TMB chromogenic solution was added, the plate was incubated at room temperature for 30 min, and then a stop solution was added to stop the reaction. The absorbance value (i.e., OD value) of each well was measured by a microplate reader at 450 nm. The concentrations of Aβ40 and Aβ42 were calculated according to the standard curves of Aβ40 and Aβ42, respectively. In the end, the concentrations of Aβ40 and Aβ42 were adjusted by the total protein concentration, so as to obtain the final concentration.

Aβ42 = Aβ42 content in culture supernatant of HEK293APP/sw overexpressing cells (ELISA kit); assay type: cell-based; settings: compound 400 μM, 24 hours, adjusted by total protein concentration, blank control 11.08
Experimental: as §1, §2, §3

[2] = Acute toxicity test, gavage to mice; assay type: in vivo, Kunming strain mice; settings: male mice; for Body weight before administration (mean ± standard deviation): baseline before gavage 2000 mg/kg once a day; for Body weight on Day 7 (mean ± standard deviation) / Body weight on Day 14 (mean ± standard deviation): gavage 2000 mg/kg once a day
Experimental: CMC-Na (sodium carboxymethylcellulose) was purchased from Shanghai Sinopharm Chemical Reagent Co., Ltd.
The test animals were Kunming strain mice, 18-20 g, provided by Beijing Keao Xieli Feed Co., Ltd.
• 1) Preparation of 0.7% CMC-Na: 0.7 g CMC-Na was added with distilled water to prepare a 0.7 g/100 mL solution. • 2) The compound to be tested was added to 0.7% CMC-Na to prepare a 100 mg/mL suspension. • 3) Each test group comprised 10 mice, all of which were male. Each mouse was orally administered with the test compound (2000 mg/kg) by gavage, once a day, for a cumulative period of 15 days. […] The body weights were recorded on the day of administration, days 7 and 14. 2.3. Test results

Row | Structure (SMILES) | Number of errors [1] | Latency period [1] | The content of Aβ40 (Aβ40) | The content of Aβ42 (Aβ42) | Body weight before administration (mean ± standard deviation) [2] | Body weight on Day 7 (mean ± standard deviation) [2] | Body weight on Day 14 (mean ± standard deviation) [2]
1 | CCCC(CCC)C(=O)S/C(CCOP(=O)(O)O)=C(/C)N(C=O)Cc1cnc(C)nc1N [Compound 1, (Z)—S-(2-(N-((4-amino-2-methylpyrimidin-5-yl)methyl)formamido)-5-(phosphonooxy)pent-2-en-3-yl) 2-propylpentanethioate] | 1.0 ± 1.25 | 229.8 ± 90.0 s | 41.18 pmol/L | 3.32 pmol/L | 31.4 ± 1.1 g | 35.5 ± 1.0 g | 36.7 ± 1.2 g
2 | CCC(CC)C(=O)S/C(CCOP(=O)(O)O)=C(/C)N(C=O)Cc1cnc(C)nc1N [Compound 2, (Z)—S-(2-(N-((4-amino-2-methylpyrimidin-5-yl)methyl)formamido)-5-(phosphonooxy)pent-2-en-3-yl) 2-ethylbutanethioate] | 1.2 ± 1.3 | 217.4 ± 96.6 s | 37.39 pmol/L | 3.34 pmol/L | – | – | –
3 | C/C(=C(\CCOP(=O)(O)O)SC(=O)c1ccco1)N(C=O)Cc1cnc(C)nc1N [Compound 9, (Z)—S-(2-(N-((4-amino-2-methylpyrimidin-5-yl)methyl)formamido)-5-(phosphonooxy)pent-2-en-3-yl) furan-2-carbothioate] | 1.0 ± 1.0 | 216.1 ± 76.8 s | 42.88 pmol/L | 2.94 pmol/L | 32.1 ± 1.7 g | 35.7 ± 1.4 g | 36.3 ± 1.7 g
